Experimental data taken from US12465610B2, “Compounds and methods for the treatment of PKR-associated diseases” (Board of Regents, The University of Texas System, priority 2019, dated 2025).

Key:
PKR = PKR (Homo sapiens, UniProt P19525); experiment: ADP-Glo kinase assay, high-throughput enzymatic screening (Reaction Biology); format: biochemical
PI4K2A protein = experiment: Thermal shift assay (differential scanning fluorimetry); format: binding
PI4KIIIb = PI4KIIIb (Homo sapiens, UniProt Q9UBF8); experiment: ADP-Glo kinase assay, high-throughput enzymatic screening (Reaction Biology); format: biochemical
leukemia cell lines = experiment: 3-(4,5-dimethylthiazol-2-yl)-2,5-diphenyltetrazolium bromide viability assay; format: cell-based
Experimental: (§1) Cell viability assays: For SRB assays, cells (2-8×10^3/well in 100 μL of culture medium) were seeded in 96-well flat-bottomed plates and treated the next day with compounds at the indicated concentrations. After the indicated treatments, cells were fixed with trichloroacetic acid. The protein was stained with SRB, and the optical density at 570 nm was determined. Relative cell viability was calculated by setting the viability rate of the control cells (exposed only to dimethyl sulfoxide) at 100% and comparing the viability of the treated cells with that of the controls. The experiments were performed at least three times for each cell line. The viability of leukemia cell lines was determined by using a 3-(4,5-dimethylthiazol-2-yl)-2,5-diphenyltetrazolium bromide assay.

PI3 Kg = PI3 Kg (Homo sapiens, UniProt P48736); experiment: ADP-Glo kinase assay, high-throughput enzymatic screening (Reaction Biology); format: biochemical
HeLa cells [1] = experiment: SRB cell viability assay; format: cell-based, human; conditions: 72 hours after treatment
Experimental: (§2) Anticancer effects of PKR-targeting compounds depend on PKR expression status: To identify compounds that can target lysosomes in PKR-positive cells or MVBs/exosomes in PKR-negative cells, the 10,000-compound ChemBridge library was screened for compounds with different effects on the growth of HeLa and HeLaPKRkd cells. […] SRB assays were next used to determine cell viability after treatment with Pac 1 or Pac 2.
as §1
Identification of PKR-associated compounds and cytotoxicity studies: The library of 10,000 compounds was screened for those with different effects on the growth of HeLa and HeLaPKRkd cells. […] Treated cells were observed under a microscope to detect morphologic changes, and their viability was determined using SRB assays 2 and 3 days after treatment. […]
For the SRB assay, cells (2-8×10^3/well in 100 μL of culture medium) were seeded in 96-well flat-bottomed plates and treated the next day with compounds at the indicated concentrations. […] The cells were stained using SRB, and the optical density at 570 nm was determined. Relative cell viability was determined by setting the viability of the control cells (exposed only to dimethyl sulfoxide) at 100% and comparing their viability with that of the treated cells. […]

[2] = system: lysosomes and MVBs/exosomes; experiment: Transmission electron microscopy (TEM) of treated cells; format: cell-based, human
PI4KIIb = PI4KIIb (Homo sapiens, UniProt Q8TCG2); experiment: ADP-Glo kinase assay, high-throughput enzymatic screening (Reaction Biology); format: biochemical
PKR and p-PKR = experiment: Western blot of PKR and p-PKR protein expression; format: cell-based, human
p-4EBP1 (T70), PP2A = experiment: Western blot of p-4EBP1 and p-PP2Ac; format: cell-based, human; conditions: H1299 and A549 cells
PIM3 = PIM3 (Homo sapiens, UniProt Q86V86); experiment: High-throughput enzymatic screening; format: biochemical
[3] = system: MDA-MB-231 tumor xenografts; experiment: Tumor xenograft growth in mice; format: in vivo; conditions: intravenous injection, over 4 weeks
Experimental: (§3) The effects of Pac 1 and Pac 2 were next examined on PKR protein expression in HeLa cells using Western blot analysis. […] No reduction in normal cell viability was observed after treatment with Pac 1 or Pac 2 (FIGS. 5F and G). […] Because most of the cancer cell lines that were tested were more sensitive to Pac 1 than to Pac 2, Pac 1 was further investigated.
(§4) Analysis of in vivo tumor growth after treatment with Pac 1: For in vivo tumor studies, MDA-MB-231 or H1299 cells (˜1×10^6) were resuspended in 0.1 mL of PBS and injected subcutaneously into the flanks of female severe combined immunodeficiency mice. When the resulting tumors reached 100-150 mm^3 in volume, the mice were stratified into groups of eight animals, with each group having approximately equal mean tumor volumes, and administered intravenous injection of Pac 1. The animals were weighed weekly, and their tumor diameters were measured twice weekly. When a tumor reached 2000 mm^3 or became necrotic, the animal was killed.

H1299 tumor xenografts = experiment: Tumor xenograft growth in mice; format: in vivo
Experimental: as §3, §4

PIM1 = PIM1 (Homo sapiens, UniProt P11309); experiment: High-throughput enzymatic screening; format: biochemical
HeLa cells [4] = experiment: Microscopic analysis of morphologic changes; format: cell-based, human
Source text: as §2
Identification of PKR-associated compounds and cytotoxicity studies: The library of 10,000 compounds was screened for those with different effects on the growth of HeLa and HeLaPKRkd cells. For this screening, both HeLa and HeLaPKRkd cells were seeded in 96-well plates in parallel and treated with each compound at a final concentration of 5 μg/mL. Cells treated with dimethyl sulfoxide (final concentration, 1%) were used as controls. Treated cells were observed under a microscope to detect morphologic changes, and their viability was determined using SRB assays 2 and 3 days after treatment. The compounds initially observed to have different effects on HeLa and HeLaPKRkd cells were subjected to two confirmatory screenings.

Sequence of PI4KIIIb (Q9UBF8 whole entry): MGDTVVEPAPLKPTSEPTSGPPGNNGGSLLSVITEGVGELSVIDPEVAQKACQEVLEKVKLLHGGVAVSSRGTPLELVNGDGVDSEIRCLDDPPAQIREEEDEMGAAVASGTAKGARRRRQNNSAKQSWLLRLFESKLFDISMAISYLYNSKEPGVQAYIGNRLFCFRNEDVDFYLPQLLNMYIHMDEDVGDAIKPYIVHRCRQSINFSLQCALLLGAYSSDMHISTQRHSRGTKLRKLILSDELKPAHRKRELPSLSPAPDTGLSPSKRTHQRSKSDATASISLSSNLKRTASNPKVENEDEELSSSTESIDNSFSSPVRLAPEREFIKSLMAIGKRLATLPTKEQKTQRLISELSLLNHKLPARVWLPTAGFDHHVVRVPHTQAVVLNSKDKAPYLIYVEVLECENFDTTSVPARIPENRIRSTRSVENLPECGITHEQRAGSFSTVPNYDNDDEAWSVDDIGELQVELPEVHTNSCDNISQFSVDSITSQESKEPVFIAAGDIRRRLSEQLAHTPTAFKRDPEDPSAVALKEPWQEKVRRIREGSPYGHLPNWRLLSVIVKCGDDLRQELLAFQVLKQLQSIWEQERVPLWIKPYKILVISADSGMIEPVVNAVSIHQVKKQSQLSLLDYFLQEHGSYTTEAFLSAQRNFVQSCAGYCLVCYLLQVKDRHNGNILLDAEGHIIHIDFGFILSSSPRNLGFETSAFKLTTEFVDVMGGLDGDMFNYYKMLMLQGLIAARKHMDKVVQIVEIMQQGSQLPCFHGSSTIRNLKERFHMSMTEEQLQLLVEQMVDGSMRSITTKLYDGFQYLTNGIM
Sequence of PI3 Kg (P48736 whole entry): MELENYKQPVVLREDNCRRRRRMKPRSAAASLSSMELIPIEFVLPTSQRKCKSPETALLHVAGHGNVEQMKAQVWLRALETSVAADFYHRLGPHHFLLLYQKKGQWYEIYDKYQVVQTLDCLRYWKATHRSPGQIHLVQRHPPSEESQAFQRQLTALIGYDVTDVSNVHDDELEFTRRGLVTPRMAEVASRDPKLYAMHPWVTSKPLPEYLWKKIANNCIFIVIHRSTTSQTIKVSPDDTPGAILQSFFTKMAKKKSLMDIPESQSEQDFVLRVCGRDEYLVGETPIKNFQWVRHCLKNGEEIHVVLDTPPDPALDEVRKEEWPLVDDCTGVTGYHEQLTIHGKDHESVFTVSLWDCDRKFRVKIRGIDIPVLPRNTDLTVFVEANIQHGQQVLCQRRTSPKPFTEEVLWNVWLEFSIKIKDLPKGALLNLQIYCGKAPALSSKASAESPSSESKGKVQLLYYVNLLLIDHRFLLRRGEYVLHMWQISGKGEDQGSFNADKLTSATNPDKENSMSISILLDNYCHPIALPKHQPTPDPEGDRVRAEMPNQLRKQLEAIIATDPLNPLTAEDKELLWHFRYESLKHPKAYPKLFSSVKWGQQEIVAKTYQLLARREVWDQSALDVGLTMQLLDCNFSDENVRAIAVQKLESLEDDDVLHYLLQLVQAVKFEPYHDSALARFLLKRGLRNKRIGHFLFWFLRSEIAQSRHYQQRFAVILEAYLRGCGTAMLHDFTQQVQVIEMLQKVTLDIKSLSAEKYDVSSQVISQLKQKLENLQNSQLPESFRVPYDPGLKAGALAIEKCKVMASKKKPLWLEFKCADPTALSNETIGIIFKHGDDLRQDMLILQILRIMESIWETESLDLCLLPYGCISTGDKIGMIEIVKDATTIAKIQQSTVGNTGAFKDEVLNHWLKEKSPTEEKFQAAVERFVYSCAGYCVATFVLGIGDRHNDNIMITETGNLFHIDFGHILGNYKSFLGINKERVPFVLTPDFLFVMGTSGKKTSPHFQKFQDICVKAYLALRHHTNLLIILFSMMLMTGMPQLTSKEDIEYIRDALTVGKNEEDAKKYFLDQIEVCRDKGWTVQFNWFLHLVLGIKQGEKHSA
Sequence of PIM1 (P11309 whole entry): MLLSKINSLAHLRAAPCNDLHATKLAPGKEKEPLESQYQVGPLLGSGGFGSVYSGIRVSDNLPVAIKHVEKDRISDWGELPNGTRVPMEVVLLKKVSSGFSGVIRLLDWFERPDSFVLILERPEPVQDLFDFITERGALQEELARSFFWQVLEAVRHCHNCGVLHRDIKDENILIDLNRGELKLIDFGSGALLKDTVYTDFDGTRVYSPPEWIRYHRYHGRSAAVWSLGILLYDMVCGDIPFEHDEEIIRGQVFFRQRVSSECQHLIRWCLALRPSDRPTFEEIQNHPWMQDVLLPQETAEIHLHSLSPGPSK
Sequence of PKR (P19525 whole entry): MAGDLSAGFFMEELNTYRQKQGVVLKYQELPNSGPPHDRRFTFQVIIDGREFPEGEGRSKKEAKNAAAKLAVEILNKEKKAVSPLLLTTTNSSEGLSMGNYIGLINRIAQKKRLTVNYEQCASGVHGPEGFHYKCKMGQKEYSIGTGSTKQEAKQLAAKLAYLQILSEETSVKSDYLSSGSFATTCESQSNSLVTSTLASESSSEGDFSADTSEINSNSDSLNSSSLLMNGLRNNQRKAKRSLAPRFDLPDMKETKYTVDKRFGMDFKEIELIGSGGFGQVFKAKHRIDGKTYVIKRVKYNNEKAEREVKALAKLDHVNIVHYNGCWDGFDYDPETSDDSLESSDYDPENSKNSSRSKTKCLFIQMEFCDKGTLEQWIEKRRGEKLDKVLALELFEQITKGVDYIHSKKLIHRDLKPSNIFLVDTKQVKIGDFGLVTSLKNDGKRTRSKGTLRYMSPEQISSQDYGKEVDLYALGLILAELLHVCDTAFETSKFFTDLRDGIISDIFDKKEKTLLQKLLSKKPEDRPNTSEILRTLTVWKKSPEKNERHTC
Sequence of PI4KIIb (Q8TCG2 whole entry): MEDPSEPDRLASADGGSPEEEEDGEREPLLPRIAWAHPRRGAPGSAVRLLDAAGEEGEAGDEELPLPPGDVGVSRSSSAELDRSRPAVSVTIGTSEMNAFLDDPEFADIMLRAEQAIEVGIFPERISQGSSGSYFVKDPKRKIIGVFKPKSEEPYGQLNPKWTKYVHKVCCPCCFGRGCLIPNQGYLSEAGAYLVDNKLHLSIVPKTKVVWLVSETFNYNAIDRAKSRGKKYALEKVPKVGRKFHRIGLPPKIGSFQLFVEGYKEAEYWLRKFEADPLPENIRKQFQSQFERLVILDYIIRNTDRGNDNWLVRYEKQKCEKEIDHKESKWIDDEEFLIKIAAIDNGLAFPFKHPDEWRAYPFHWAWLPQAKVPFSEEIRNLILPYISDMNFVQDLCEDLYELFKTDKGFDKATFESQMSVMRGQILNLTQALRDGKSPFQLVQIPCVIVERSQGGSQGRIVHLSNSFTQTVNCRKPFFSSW

O=C(N/N=C\c1c(O)ccc2ccccc12)c1cccc2cc[nH]c12 [Pac 1, N′—[(Z)-(2-Hydroxy-1-naphthyl)methylene]-1H-indole-7-carbohydrazide]
inhibition of PKR kinase activity (PKR): did not inhibit
binding to PI4K2A and change of melting temperature (PI4K2A protein): binds to PI4K2A and causes a decrease in the melting temperature
inhibition of kinase activity (PI4KIIIb): not other kinases
growth of leukemia cell lines (leukemia cell lines): growth inhibition
inhibition of kinase activity (PI3 Kg): not other kinases
viability of HeLa cells (HeLa cells [1]): suppressed more effectively by Pac 1 than by Pac 2
lysosomes by TEM ([2]; HeLa cells, 5 μM): destruction of lysosomes
lysosomes and MVBs/exosomes by TEM ([2]; HeLaPKRkd cells): a lack of lysosomes but enrichment of MVBs/exosomes
inhibition of kinase activity (PI4KIIb): not other kinases
PKR and p-PKR expression (PKR and p-PKR; A549 and H1299 cells, 5 μM, 72 hours): markedly reduced
expression of PKR and p-PKR (PKR and p-PKR; HeLa cells, 72 hours after treatment): significantly reduced
PKR, p-PKR, and PI4K2A expression (PKR and p-PKR; LOVO colon cancer cells, 72 hours, various doses): reduced PKR, p-PKR, and PI4K2A expression
PKR expression (PKR and p-PKR; breast cancer cell lines, 72 hours, various doses): reduced PKR expression
PP2A activity, indicated by dissociation of the p-PP2Ac complex (p-4EBP1 (T70), PP2A): Inactivation of PP2A was observed
expression of p-4EBP1 (T70) protein (p-4EBP1 (T70), PP2A; 72 hours after treatment): reduction of expression
inhibition of PIM3/1 activity (PIM3): markedly inhibited
growth of MDA-MB-231 tumor xenografts [3]: inhibited the growth
expression of PKR, p-PKR, and Ki-67 protein in tumors (H1299 tumor xenografts; H1299 tumors, immunohistochemical analysis): dramatically suppressed
growth of H1299 tumor xenografts (H1299 tumor xenografts; intravenous injection, over 4 weeks): inhibited the growth
inhibition of PIM3/1 activity (PIM1): markedly inhibited
growth of HeLa cells by microscopy (HeLa cells [4]): suppressed the growth of HeLa cells more effectively than did treatment with Pac 2
